Experimental data reported in patent US20100275276A1, “ZEBRAFISH MODEL FOR ASSESSING GASTROINTESTINAL MOTILITY” (THE RESEARCH FOUNDATION OF STATE UNIVERSITY OF NEW YORK, priority 2006, published 2010).
Structures can show the parent of a compound that is named as a salt. Where two headings read alike, the source gives them in different places.

Assays:
zebrafish larvae [1] = assay: Fluorescent microsphere spectrophotometric assay of propulsive GI motility; assay type: in vivo; conditions: for Reduction of fluorescence intensity: 11 dpf larvae, one day after loading; for Total fluorescence intensity one day after loading: 11 day old larvae, 10^−5 mg/ml, n=5
Source text: Gastrointestinal (GI) motility disorders such as constipation and dyspepsia are common, but current treatment options are largely ineffective, primarily due to a limited understanding of GI motility. The broad objective is to develop a new zebrafish-based model system for GI motility. Muscular contractions of the GI tract may be directly observed in a zebrafish larva, and GI motility has been quantified as contraction frequency. […] The specific objective of this project is to develop an assay to specifically measure propulsion of luminal contents. […] A decrease in fluorescence emission would indicate that ingested microspheres have been eliminated via propulsive motility. Fluorescence spectroscopy was used to quantify the fluorescence intensity as a function of time.
Total fluorescence emission averaged 62,630±23,780 counts per sec (n=5 samples, 5 larvae grouped per sample) immediately after ingestion in 11 day old larvae. One day later total fluorescence intensity averaged 53,277±6,333 counts per sec, a 15% decrease (n=5, P<0.05). […] Two prokinetic agents, erythromycin and 5-hydroxytryptamine (10^−5 mg/ml), were used to validate the assay. One day after loading, the total fluorescence intensity decreased after application of erythromycin (69,782±10,423, n=5, P<0.09) and with 5 HT (86,820±21,850, n=5, P<0.003).
After larvae spontaneously ingest the fluorescent micro spheres, which were suspended in the medium that the larvae are in, the larvae were washed and separated into 2 groups. The first group was sacrificed and mashed. The total fluorescence emission was measured from the ‘mashed’ larvae. The second group was sacrificed some time later. If GI motility is functional then some fraction of the micro spheres will have been excreted as a result of GI propulsive motility. The second group was sacrificed and mashed and total fluorescence emission was measured.
The difference between Group 1 and Group 2 represents the fraction of beads that has been excreted and this difference is a measure of functional GI propulsive motility.

zebrafish larvae [2] = assay: Spatiotemporal mapping of spontaneous GI motility; assay type: in vivo; conditions: 11 dpf larvae treated with 50 μM Gleevec
Source text: Spontaneous GI motility occurs at regular intervals and propagates along the GI tract at 11 dpf when ICC are fully present in the GI tract.
This Example uses digital imaging and image processing techniques to quantify coordinated GI motility. […] These types of motility can be distinguished in time-lapse digital images.
This Example uses a technique, spatiotemporal mapping, that converts a series of images into a single image with dimensions of time and distance. This single image supplies data on movement, and therefore propagation contractions can be visualized and quantified.

zebrafish larvae [3] = test system: zebrafish larvae
[4] = 14 dpf Gleevec treated larvae, Table 1 of Example 8
[5] = 14 dpf Gleevec treated larvae, per 300 second interval, Table 1 of Example 8
[6] = 14 dpf larvae, imatinib mesylate 50 μM added at 5 dpf, n = 3
[7] = imatinib mesylate 50 μM added at 5 dpf

Structure (SMILES) | Reduction of fluorescence intensity (zebrafish larvae [1]) [%] | Total fluorescence intensity one day after loading (zebrafish larvae [1]) | Spontaneous motility (spatiotemporal map) (zebrafish larvae [2]) | Distance (zebrafish larvae [3]; [4]) [μm] | Velocity (zebrafish larvae [3]; [4]) [μm/sec] | Total # contractions, Average (zebrafish larvae [3]; [5]) | Total # contractions, Total (zebrafish larvae [3]; [5]) | Distance (zebrafish larvae [3]; [6]) [μm] | Velocity (zebrafish larvae [3]; [6]) [μm/sec] | Total # contractions/300 sec (zebrafish larvae [3]; 14 dpf larvae, imatinib mesylate 50 μM added to medium at 5 dpf, n = 3) [contractions/300 sec] | Contractions in treated 14 dpf larvae (description) (zebrafish larvae [3]; Gleevec treated 14 dpf larvae) | Character of the remaining contractions (zebrafish larvae [3]; [7]) | Effect on number of contractions (zebrafish larvae [3]; [7])
NCCc1c[nH]c2ccc(O)cc12 [5-hydroxytryptamine] | 53 | 86,820±21,850 counts per sec |  |  |  |  |  |  |  |  |  |  | 
CC[C@H]1OC(=O)[C@H](C)[C@@H](O[C@H]2C[C@@](C)(OC)[C@@H](O)[C@H](C)O2)[C@H](C)[C@@H](O[C@@H]2O[C@H](C)C[C@H](N(C)C)[C@H]2O)[C@](C)(O)C[C@@H](C)C(=O)[C@H](C)[C@@H](O)[C@]1(C)O [erythromycin] | 23 | 69,782±10,423 counts per sec |  |  |  |  |  |  |  |  |  |  | 
Cc1ccc(NC(=O)c2ccc(CN3CCN(C)CC3)cc2)cc1Nc1nccc(-c2cccnc2)n1 [imatinib mesylate] |  |  | absent | 399.8 ± 67.2 | 10.2 ± 3.1 | 2.3 ± 0.58 | 7 | 399.8 ± 67.2 | 10.2 ± 3.1 | 7 | few contractions which were variable and did not fully propagate | unorganized, shorter and slower | decrease in the number of contractions
